Data reported in patent US20230295152A1 (SENDA BIOSCIENCES, INC., priority 2019, published 2023).
pIC50: −log10 of the molar value. Where two headings read alike, the source gives them in different places.

How the values were obtained:
[1] = Solubility Determination Assay in PBS pH 1.6 and pH 7.4; format: physicochemical; details: PBS buffer, aqueous buffer, kinetic from dmso stock
Protocol: The stock solutions of test compounds and control compound progesterone were prepared in DMSO at the concentrations of 10 mM. 15 μL of stock solution (10 mM) of each sample was placed in order into their proper 96-well rack. 485 μL of PBS pH 1.6 and pH 7.4 were added into each vial of the cap-less Solubility Sample plate. The assay was performed in singlet. One stir stick was added to each vial and then the vial was sealed using a molded PTFE/Silicone plug. […] After completion of the 2 hours, plugs were removed and the stir sticks were removed using a big magnet. The samples from the Solubility Sample plate were transferred into the filter plate. Using the Vacuum Manifold, all the samples were filtered. An aliquot of 5 μL was taken from the filtrate followed by addition of 495 μL of a mixture of H2O and acetonitrile containing internal standard (1:1). A certain proportion of ultrapure water was used to dilute the diluent according to the peak shape. The dilution factor was changed according to the solubility values and the LC-MS signal response.
From the 10 mM DMSO STD plate, 6 μL was transferred into the remaining empty plate, and then 194 μL of DMSO were added to that plate to have a STD concentration of 300 μM. From the 300 μM DMSO STD plate, 5 μL were transferred into the remaining empty plate, and then 495 μL of a mixture of H2O and acetonitrile containing internal standard (1:1) were added to that plate to have a final STD concentration of 3 μM. A certain proportion of ultrapure water was used to dilute the diluent according to the peak shape. The concentrations of the standard samples were changed according to the LC-MS signal response.
The plate was placed into the well plate autosampler. The samples were evaluated by LC-MS/MS analysis.
All calculations were carried out using Microsoft Excel.
The filtrate was analyzed and quantified against a standard of known concentration using LC coupled with mass spectral peak identification and quantitation. Solubility values of the test compound and control compound were calculated as follows: […]
Any value of the compounds that was not within the specified limits was rejected and the experiment was repeated.
“+++” indicates a solubility value equal to or greater than 1 μM, “++” indicates a solubility value between 0.1 and 1 μM, and “+” indicates a solubility value less than 0.1 μM.

[2] = Hepatocyte Stability Assay, human; format: in vitro ADME; details: cryopreserved hepatocytes in suspension; human hepatocytes; read-out: Human hepatocyte clearance
Protocol: • Preparation of working solutions: 10 mM stock solutions of test compound and positive control were prepared in DMSO. In separate conical tubes, the 10 mM solution of test compound and the positive control were diluted to 100 μM by combining 198 μL of 50% acetonitrile/50% water and 2 μL of 10 mM stock.
Preparation of Hepatocytes: Incubation medium (William's E Medium supplemented with GlutaMAX) and hepatocyte thawing medium were placed in a 37° C. water bath and allowed warming for at least 15 minutes prior to use. A vial of cryopreserved hepatocytes was transferred from storage, ensuring that vials remained at cryogenic temperatures until thawing process ensued. Cells were thawed by placing the vial in a 37° C. water bath and gently shaking the vials for 2 minutes. After thawing was completed, vial was sprayed with 70% ethanol and transferred to a biosafety cabinet. Wide-bore pipette tip were used to transfer hepatocytes into 50 mL conical tube containing thawing medium. The 50 mL conical tube were placed into a centrifuge and spun at 100 g for 10 minutes. Upon completion of spin, thawing medium was aspirated and resuspended hepatocytes in enough incubation medium to yield ˜1.5×10^6 cells/mL. Using an AO/PI Staining, cells were counted and the viable cell density was determined. Cells with poor viability (<75% viability) were determined to be not acceptable for use. Cells were diluted with incubation medium to a working cell density of 0.5×10^6 viable cells/mL.
Procedure for Stability Determination: 198 μL of hepatocytes were pipetted into each wells of a 96-well non-coated plate. The plate was placed in the incubator to allow the hepatocytes to warm for 10 minutes. 2 μL of the 100 μM test compound or positive control solutions were pipetted into respective wells of the 96-well non-coated plate to start the reaction. The plate was returned to the incubator for the designed time points. Well contents was transferred in 25 μL aliquots at time points of 0, 15, 30, 60, 90 and 120 minutes. The aliquots were then mixed with 6 volumes (150 μL) of acetonitrile containing internal standard, IS (100 nM alprazolam, 200 nM caffeine and 100 nM tolbutamide) to terminate the reaction. The mixture was vortex for 5 minutes. Samples were centrifuged for 45 minutes at 3,220 g. An aliquot of 100 μL of the supernatant was diluted by 100 μL ultra-pure water, and the mixture was used for LC/MS/MS analysis. All incubations were performed in duplicate.
Data Analysis: All calculations were carried out using Microsoft Excel. Peak areas were determined from extracted ion chromatograms. In vitro half-life (t1/2) of parent compound was determined by regression analysis of the percent parent disappearance vs. time curve.
(§1) The in vitro half-life (in vitro t1/2) was determined from the slope value:
Conversion of the in vitro t1/2 (in min) into the in vitro intrinsic clearance (in vitro CLint, in μL/min/1×10^6 cells) was done using the following equation (mean of duplicate determinations):
V=incubation volume(0.2 mL);
N=number of hepatocytes per well(0.1×10^6 cells).
“+++” indicates a CLint value less than 20 mL/min/Kg, “++” indicates a CLint between 20 and 50 mL/min/Kg, and “+” indicates an CLint above 50 mL/min/Kg.

AHR = target: T1, AHR (Homo sapiens, UniProt P35869); assay: DRE-Luciferase Reporter Assay, HepG2 AhR-Lucia reporter cells; format: cell-based; details: with AHR activating ligand at EC50, read-out: HepG2-Luc IC50
T1 construct: other cell line with a DRE-luciferase reporter stably transfected; endogenous in cells; host or cells: HepG2 AhR-Lucia reporter cells
T1 sequence (P35869 11-848): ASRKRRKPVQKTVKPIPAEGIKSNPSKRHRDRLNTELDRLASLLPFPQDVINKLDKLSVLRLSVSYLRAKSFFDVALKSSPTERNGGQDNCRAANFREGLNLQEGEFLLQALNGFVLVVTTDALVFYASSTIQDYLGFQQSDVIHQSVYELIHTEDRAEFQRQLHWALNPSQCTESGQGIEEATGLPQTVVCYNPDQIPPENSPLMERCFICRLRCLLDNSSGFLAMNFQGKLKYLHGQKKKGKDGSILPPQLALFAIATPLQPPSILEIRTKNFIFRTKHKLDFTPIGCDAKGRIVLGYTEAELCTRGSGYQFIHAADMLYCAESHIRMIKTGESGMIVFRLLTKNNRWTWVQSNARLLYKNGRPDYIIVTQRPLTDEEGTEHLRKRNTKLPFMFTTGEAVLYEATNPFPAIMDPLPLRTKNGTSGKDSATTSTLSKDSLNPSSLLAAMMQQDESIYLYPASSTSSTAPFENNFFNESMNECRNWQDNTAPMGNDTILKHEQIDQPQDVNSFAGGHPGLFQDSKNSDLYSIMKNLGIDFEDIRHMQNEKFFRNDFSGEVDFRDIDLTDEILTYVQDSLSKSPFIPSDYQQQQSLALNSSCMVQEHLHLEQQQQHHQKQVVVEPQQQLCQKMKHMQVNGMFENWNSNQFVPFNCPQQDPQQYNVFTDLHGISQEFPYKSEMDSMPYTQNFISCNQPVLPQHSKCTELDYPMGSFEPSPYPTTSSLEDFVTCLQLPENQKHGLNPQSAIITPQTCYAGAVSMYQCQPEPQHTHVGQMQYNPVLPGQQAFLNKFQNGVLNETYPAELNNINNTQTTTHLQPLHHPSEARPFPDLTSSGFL
Outline: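 DRE-luciferase reporter cells (e.g. HepG2 AhR-Lucia, 20000 cells) treated with antagonist log dilutions from 100 uM, then an AHR agonist (e.g. TCDD, kynurenine, ITE, FICZ) at its EC50 added after 1 hr. Secreted luciferase measured after 24 or 48 h (QUANTI-Luc); IC50 = concentration halving luciferase activity.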

[3] = Liver Microsome Stability Assay, human; format: in vitro ADME; details: human liver microsomes
Protocol: Two separate experiments were performed as follows.
With Cofactors (NADPH): 25 μL of 10 mM NADPH was added to the incubations. The final concentrations of microsomes and NADPH were 0.5 mg/mL and 1 mM, respectively. The final concentration of microsomes was 0.5 mg/mL. The mixture was pre-warmed at 37° C. for 10 minutes. The reaction was started with the addition of 2.5 μL of 100 μM control compound or test compound solutions. Verapamil was used as positive control in this study. The final concentration of test compound or control compound was 1 μM. The incubation solution was incubated in water batch at 37° C. Aliquots of 25 μL were taken from the reaction solution at 0.5, 5, 15, 30 and 60 minutes. The reaction was stopped by the addition of 5 volumes of cold acetonitrile with IS (200 nM caffeine and 100 nM tolbutamide). Samples were centrifuged at 3, 220 g for 40 minutes. Aliquot of 100 μL of the supernatant was mixed with 100 μL of ultra-pure H2O and then used for LC-MS/MS analysis.
Data Analysis: All calculations were carried out using Microsoft Excel. Peak areas were determined from extracted ion chromatograms. The slope value, k, was determined by linear regression of the natural logarithm of the remaining percentage of the parent drug vs. incubation time curve.
as §1
Conversion of the in vitro t1/2 (min) into the in vitro intrinsic clearance (in vitro CLint, in μL/min/mg protein) was done using the following equation (mean of duplicate determinations): […]
The calculations of Scaled-up CLint(mL/min/kg), Predicted CLH (mL/min/kg) and EH were done using the following equation:
Scaled-up CLint=(0.693/t1/2)×(1/(microsomal protein concentration(0.5 mg/mL)))×Scaling Factors;Predicted CLH=(QH×Scaled-up CLint×fub)/(QH+Scaled-up CLint×fub);EH=Predicted CLH/QH
where QH is the hepatic blood flow (mL/min/kg) (Table 32), • fub is the fraction of unbound drug in plasma which is assumed to be 1.
“+++” indicates a Clint value less than 10 mL/min/Kg, […] indicates a Clint between 10 and 20 mL/min/Kg, and “+” indicates a Clint above 20 mL/min/Kg.

[4] = PBS pH 1.6, 25° C., read-out: Aq. Solubility at pH = 1.6
[5] = PBS pH 7.4, 25° C., read-out: Aq. Solubility at pH = 7.4

| Structure (SMILES) | solubility at 2 h [1, 4] [µM] | solubility at 2 h [1, 5] [µM] | CLint scaled at 1 μM [2] [mL/min/kg] | pIC50 (AHR) | Human liver microsome clearance [3] |
| --- | --- | --- | --- | --- | --- |
| C[C@@H](CO)n1cnc2c(-c3cccnc3)nc(-c3ccc(Cl)cc3)cc2c1=O [Compound 24] | ≥ 1 | ≥ 1 |  | > 7.00 |  |
| C[C@H](n1cnc2c(-c3cccnc3)nc(-c3ccc(Cl)cc3)cc2c1=O)C(C)(C)O [Compound 36] | ≥ 1 | < 0.1 |  | > 7.00 | +++ (“+++” indicates a Clint value less than 10 mL/min/Kg) |
| Cc1ccc(-c2cc3c(=O)n([C@H](CO)C(C)C)cnc3c(-c3cc(F)cc(F)c3)n2)cc1 [Compound 37] | ≥ 1 | < 0.1 |  | > 7.00 |  |
| CC(C)(O)Cn1cnc2c(-c3cccc(F)c3)nc(-c3ccc(Cl)cc3)cc2c1=O [Compound 38] | < 0.1 | < 0.1 |  | > 7.00 |  |
| O=c1c2cc(-c3ccc(OC(F)(F)F)cc3)nc(-c3cccnc3)c2ncn1C[C@@H](O)C(F)(F)F [Compound 123, (R)-8-(pyridin-3-yl)-3-(3,3,3-trifluoro-2-hydroxypropyl)-6-(4-(trifluoromethoxy)phenyl)pyrido[3,4-d]pyrimidin-4(3H)-one] | ≥ 1 | < 0.1 | < 20 |  |  |
| O=c1c2cc(-c3ccc(Cl)cc3)nc(-c3cccnc3)c2ncn1[C@@H]1CNC[C@H]1O [Compound 134, 6-(4-chlorophenyl)-3-((3R,4R)-4-hydroxypyrrolidin-3-yl)-8-(pyridin-3-yl)pyrido[3,4-d]pyrimidin-4(3H)-one] |  |  | < 20 | > 7.00 |  |
| C[C@@H](CO)n1cnc2c(-c3cnn(C)c3)nc(-c3ccc(C(F)(F)F)cn3)cc2c1=O [Compound 150, (S)-3-(1-hydroxypropan-2-yl)-8-(1-methyl-1H-pyrazol-4-yl)-6-(5-(trifluoromethyl)pyridin-2-yl)pyrido[3,4-d]pyrimidin-4(3H)-one] |  |  | < 20 | > 7.00 |  |

Second part, led by results:

| solubility at 2 h [1, 4] [µM] | solubility at 2 h [1, 5] [µM] | CLint scaled at 1 μM [2] [mL/min/kg] | pIC50 (AHR) | Structure (SMILES) | Human liver microsome clearance [3] |
| --- | --- | --- | --- | --- | --- |
| ≥ 1 | ≥ 1 | < 20 |  | O=c1c2cc(-c3ccc(Cl)cc3)nc(-c3cccnc3)c2ncn1[C@H]1COC[C@H]1O (stereo in doubt) [Compound 70] |  |
| ≥ 1 | ≥ 1 |  | > 7.00 | O=c1c2cc(-c3ccc(C(F)(F)F)nc3)nc(-c3cccnc3)c2ncn1[C@@H]1COC[C@@H]1O [Compound 129, 3-((3R,4R)-4-hydroxytetrahydrofuran-3-yl)-8-(pyridin-3-yl)-6-(6-(trifluoromethyl)pyridin-3-yl)pyrido[3,4-d]pyrimidin-4(3H)-one] |  |
| ≥ 1 | ≥ 1 |  | > 7.00 | O=c1c2cc(-c3ccc(C(F)(F)F)cn3)nc(-c3cccnc3)c2ncn1[C@@H]1COC[C@@H]1O [Compound 148, 3-((3R,4R)-4-hydroxytetrahydrofuran-3-yl)-8-(pyridin-3-yl)-6-(5-(trifluoromethyl)pyridin-2-yl)pyrido[3,4-d]pyrimidin-4(3H)-one] |  |
